Laboratory results taken from patent US11597919B2, “Systems, methods and compositions for sequence manipulation with optimized functional CRISPR-Cas systems” (The Broad Institute, Inc., priority 2013, dated 2023).

Key:
[1] = system: A375 melanoma cell line (BRAF V600E); conditions: cited from earlier work
[2] = system: HEK 293FT cells; test: Nuclease and double-nicking activity of potential nickases, SURVEYOR analysis (Example 10); assay type: cell-based, human; conditions: 400 ng nickase, 100 ng sgRNA
Experimental: Nuclease and double-nicking activities for all potential nickases were tested in HEK 293FT cells as follows: co-transfection of 400 ng of nickase and 100 ng of U6-driven sgRNA (100 ng for one guide, or 50 ng each for a pair of sgRNAs) by Lipofectamine 2000 into ˜200,000 cells. DNAs from transfected cells were collected for SURVEYOR analysis.

[3] = system: RNA; conditions: cited from earlier work
[4] = system: human EMX1 locus; test: Surveyor assay for genome modification at the human EMX1 locus in HEK 293FT cells; assay type: cell-based; conditions: co-expression with EMX1-targeting chimeric crRNA; n=3
Experimental: Cells were transfected using Lipofectamine 2000 (Life Technologies) following the manufacturer's recommended protocol. For each well of a 24-well plate a total of 800 ng of plasmids were used.
Genomic DNA was extracted using the QuickExtract DNA extraction kit (Epicentre) following the manufacturer's protocol. […] Extracted genomic DNA was immediately processed or stored at −20° C.
The genomic region surrounding a CRISPR target site for each gene was PCR amplified, and products were purified using QiaQuick Spin Column (Qiagen) following manufacturer's protocol. A total of 400 ng of the purified PCR products were mixed with 2 μl 10× Taq polymerase PCR buffer (Enzymatics) and ultrapure water to a final volume of 20 μl, and subjected to a re-annealing process to enable heteroduplex formation: 95° C. for 10 min, 95° C. to 85° C. ramping at −2° C./s, 85° C. to 25° C. at −0.25° C./s, and 25° C. hold for 1 minute. After re-annealing, products were treated with Surveyor nuclease and Surveyor enhancer S (Transgenomics) following the manufacturer's recommended protocol, and analyzed on 4-20% Novex TBE poly-acrylamide gels (Life Technologies). Gels were stained with SYBR Gold DNA stain (Life Technologies) for 30 minutes and imaged with a Gel Doc gel imaging system (Bio-rad). Quantification was based on relative band intensities, as a measure of the fraction of cleaved DNA.

[5] = system: human EMX1 locus; test: Sequencing of amplicons containing the EMX1 target locus; assay type: cell-based; conditions: 327 amplicons
Experimental: HEK 293FT or N2A cells were transfected with plasmid DNA as described above. After transfection, the cells were incubated at 37° C. for 72 hours before genomic DNA extraction. Genomic DNA was extracted using the QuickExtract DNA extraction kit (Epicentre) following the manufacturer's protocol. Briefly, cells were resuspended in QuickExtract solution and incubated at 65° C. for 15 minutes and 98° C. for 10 minutes. Extracted genomic DNA was immediately processed or stored at −20° C.
Since DSBs in mammalian nuclei are partially repaired by the non-homologous end joining (NHEJ) pathway, which leads to the formation of indels, the Surveyor assay was used to detect potential cleavage activity at the target EMX1 locus (FIG. 7) (see e.g. Guschin et al., 2010, Methods Mol Biol 649: 247). Co-transfection of all four CRISPR components was able to induce up to 5.0% cleavage in the protospacer (see FIG. 2D). […] Removing any of the remaining three components abolished the genome cleavage activity of the CRISPR system (FIG. 2D). Sanger sequencing of amplicons containing the target locus verified the cleavage activity: in 43 sequenced clones, 5 mutated alleles (11.6%) were found. Similar experiments using a variety of guide sequences produced indel percentages as high as 29% (see FIGS. 3-6, 10, and 11).

[6] = system: target DNA with 5′-NGG PAM; test: Cleavage of target DNA bearing 5′-NGG PAM by PI domain chimeras (Example 12); assay type: cell-based, human; conditions: 5′-GGGCT
Experimental: Cells were transfected using Lipofectamine 2000 (Life Technologies) at 70-80% confluency following the manufacturer's recommended protocol.
Genomic DNA was extracted using the QuickExtract DNA Extraction Solution (Epicentre) following the manufacturer's protocol.
400 ng total of the purified PCR products were mixed with 2 μl 10× Taq DNA Polymerase PCR buffer (Enzymatics) and ultrapure water to a final volume of 20 μl, and subjected to a re-annealing process to enable heteroduplex formation: 95° C. for 10 min, 95° C. to 85° C. ramping at −2° C./s, 85° C. to 25° C. at −0.25° C./s, and 25° C. hold for 1 min. After re-annealing, products were treated with SURVEYOR nuclease and SURVEYOR enhancer S (Transgenomics) following the manufacturer's recommended protocol, and analyzed on 4-20% Novex TBE poly-acrylamide gels (Life Technologies). Gels were stained with SYBR Gold DNA stain (Life Technologies) for 30 min and imaged with a Gel Doc gel imaging system (Bio-rad). Quantification was based on relative band intensities. Indel percentage was determined by the formula, 100×(1−(1−(b+c)/(a+b+c))^1/2), where a is the integrated intensity of the undigested PCR product, and b and c are the integrated intensities of each cleavage product.

CCCS(=O)(=O)Nc1ccc(F)c(C(=O)c2c[nH]c3ncc(Cl)cc23)c1F [PLX4720]
sensitivity of cell line to BRAF inhibitor [1]: naturally sensitive

Cbh-hSpCas9(D10A)-NLS: SpCas9 RuvCI mutant D10A, homology set
Functional? [2]: nickase activity

Cbh-hSpCas9(H840A)-NLS: SpCas9 HNH mutant H840A, homology set
Functional? [2]: no activity

N55K mutant: N55K mutant of the MS2 bacteriophage coat protein
binding affinity [3]: higher binding affinity than wild type MS2

SpCas9n: SpCas9 with aspartate-to-alanine substitution (D10A) in the RuvC I catalytic domain, a nickase
indels at the EMX1 protospacer target [4]: does not generate indels | indels detected by sequencing [5]: did not detect any indels

B1: Sp-St3Cas9: SpCas9 with the PI domain of St3Cas9, SEQ ID NO: 121 (protein)
chain: MDYKDHDGDYKDHDIDYKDDDDKMAPKKKRKVGIHGVPAADKKYSIGLDIGTNSVGWAVITDEYKVPSKKFKVLGNTDRHSIKKNLIGALLFDSGETAEATRLKRTARRRYTRRKNRICYLQEIFSNEMAKVDDSFFHRLEESFLVEEDKKHERHPIFGNIVDEVAYHEKYPTIYHLRKKLVDSTDKADLRLIYLALAHMIKFRGHFLIEGDLNPDNSDVDKLFIQLVQTYNQLFEENPINASGVDAKAILSARLSKSRRLENLIAQLPGEKKNGLFGNLIALSLGLTPNFKSNFDLAEDAKLQLSKDTYDDDLDNLLAQIGDQYADLFLAAKNLSDAILLSDILRVNTEITKAPLSASMIKRYDEHHQDLTLLKALVRQQLPEKYKEIFFDQSKNGYAGYIDGGASQEEFYKFIKPILEKMDGTEELLVKLNREDLLRKQRTFDNGSIPHQIHLGELHAILRRQEDFYPFLKDNREKIEKILTFRIPYYVGPLARGNSRFAWMTRKSEETITPWNFEEVVDKGASAQSFIERMTNFDKNLPNEKVLPKHSLLYEYFTVYNELTKVKYVTEGMRKPAFLSGEQKKAIVDLLFKTNRKVTVKQLKEDYFKKIECFDSVEISGVEDRFNASLGTYHDLLKIIKDKDFLDNEENEDILEDIVLTLTLFEDREMIEERLKTYAHLFDDKVMKQLKRRRYTGWGRLSRKLINGIRDKQSGKTILDFLKSDGFANRNFMQLIHDDSLTFKEDIQKAQVSGQGDSLHEHIANLAGSPAIKKGILQTVKVVDELVKVMGRHKPENIVIEMARENQTTQKGQKNSRERMKRIEEGIKELGSQILKEHPVENTQLQNEKLYLYYLQNGRDMYVDQELDINRLSDYDVDHIVPQSFLKDDSIDNKVLTRSDKNRGKSDNVPSEEVVKKMKNYWRQLLNAKLITQRKFDNLTKAERGGLSELDKAGFIKRQLVETRQITKHVAQILDSRMNTKYDENDKLIREVKVITLKSKLVSDFRKDFQFYKVREINNYHHAHDAYLNAVVGTALIKKYPKLESEFVYGDYKVYDVRKMIAKSEQEIGKATAKYFFYSNIMNFFKTEITLANGEIRKRPLIETNGETGEIVWDKGRDFATVRKVLSMPQVNIVKKTVEEQNHGLDRGKPKGLFNANLSSKPKPNSNENLVGAKEYLDPKKYGYGGYAGISNSFTVLVKGTIEKGAKKKITNVLEFQGISILDRINYRKDKLNFLLEKGYKDIELIIELPKYSLFELSDGSRRMLASILSTNNKRGEIHKGNQIFLSQKFVKLLYHAKRISNTINENHRKYVENHKKEFEELFYYILEFNENYVGAKKNGKLLNSAFQSWQNHSIDELCSSFIGPTGSERKGLFELTSRGSAADFEFLGVKIPRYRDYTPSSLLKDATLIHQSVTGLYETRIDLAKLGEGKRPAATKKAGQAKKKK
cleavage of target DNA with 5′-NGG PAM [6]: retained cleavage activity for the target DNA with 5′-NGG PAM, albeit at a lower level than that of SpCas9
